Some test systems named below: REH; MHH-CALL-4; KASUMI-2.
Common to all, as to experiment: selective drug sensitivity score (sDSS, relative to normal bone marrow) (sDSS (score)); higher = more potent and effective on the cell line relative to normal bone marrow cells
What all share (settings): 72 h

The source of these data is the supplement of paper PMC8967900.
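Also: ALL cell lines in 384-well plates, five doses spanning 10,000-fold, each plate scaled between vehicle and 100 µmol/L benzalkonium chloride controls, sDSS an adapted area-under-curve metric.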

As to `Nc1ccccc1NC(=O)c1ccc(CNC(=O)OCc2cccnc2)cc1` [Entinostat] (top concentration 10000 nM), the “selective drug sensitivity score” value in the assay with REH turned out to be 2.68; in the assay with MHH-CALL-4 it was 8.88; with KASUMI-2 it was 7.68.

Consider `C#Cc1cccc(Nc2ncnc3cc(OCCOC)c(OCCOC)cc23)c1` [Erlotinib] (top concentration 10000 nM), for which the “selective drug sensitivity score” value in the assay on REH is -0.84; in the assay on MHH-CALL-4 it was -1.24; in the assay on KASUMI-2, 3.96.

Consider `O=C(Nc1nc2cccc(-c3ccc(CN4CCS(=O)(=O)CC4)cc3)n2n1)C1CC1` [Filgotinib] (top concentration 10000 nM), for which the “selective drug sensitivity score” value in the assay with REH is 1.16; in the assay with MHH-CALL-4, 2.86; with KASUMI-2, -0.74.

Consider `C[C@H]1C=C2C(=O)O[C@H]3CC[C@@H](C1)[C@@]23O` [Galiellalactone] (top concentration 25000 nM), for which the “selective drug sensitivity score” value was 3.66 in the assay with REH, -3.84 in the assay on MHH-CALL-4 and -0.44 in the assay on KASUMI-2.

Take `CN(C)C1CCN(C(=O)c2ccc(NC(=O)Nc3ccc(-c4nc(N5CCOCC5)nc(N5CCOCC5)n4)cc3)cc2)CC1` [Gedatolisib] (top concentration 1000 nM): the “selective drug sensitivity score” value in the assay with REH was 9.16; with MHH-CALL-4, 3.66; in the assay on KASUMI-2, 7.56.

For `Nc1ccn([C@@H]2O[C@H](CO)[C@@H](O)C2(F)F)c(=O)n1` [Gemcitabine] (top concentration 1000 nM), the entries for the “selective drug sensitivity score” value in the assay with REH, with MHH-CALL-4 and in the assay with KASUMI-2 were 13, 12.9 and 15.1, respectively.

On to `COc1cc2c(cc1-c1c(C)noc1C)ncc1[nH]c(=O)n([C@H](C)c3ccccn3)c12` [I-BET151] (top concentration 10000 nM), for which the “selective drug sensitivity score” value in the assay with REH was -2.24; in the assay with MHH-CALL-4, 5.96; with KASUMI-2, -2.94.

Consider `O=C1CCc2c(Oc3ccc4c(c3)[C@@H]3[C@H](O4)[C@H]3c3nc4cc(C(F)(F)F)ccc4[nH]3)ccnc2N1` [Lifirafenib (BGB-283)] (top concentration 10000 nM), for which the figures for the “selective drug sensitivity score” value in the assay with REH, with MHH-CALL-4 and in the assay on KASUMI-2 were 3.48, 7.58 and 1.98, respectively.

Regarding `NC(=O)N1CCC(CC(=O)N2CCC([C@H]3c4ncc(Br)cc4CCc4cc(Cl)cc(Br)c43)CC2)CC1` [Lonafarnib] (top concentration 100000 nM), the “selective drug sensitivity score” value came to 8.04 in the assay on REH, 7.44 in the assay on MHH-CALL-4 and 6.14 with KASUMI-2.

Consider `NC1(c2ccc(-c3nc4ccn5c(=O)[nH]nc5c4cc3-c3ccccc3)cc2)CCC1` [MK-2206] (top concentration 1000 nM), for which the “selective drug sensitivity score” value in the assay on REH stood at 6.26; in the assay with MHH-CALL-4, 5.76; in the assay with KASUMI-2, 6.46.

For the compound `O=C(Nc1cccc(NC(=O)c2cccc(O)c2O)c1)c1cccc(O)c1O` [MST-312] (top concentration 10000 nM), the “selective drug sensitivity score” value in the assay with REH is 7.4; with MHH-CALL-4 it was 1.8; with KASUMI-2 it was -1.6.

As for `CC(=O)O[C@]1(C(C)=O)CC[C@H]2[C@@H]3C=C(C)C4=CC(=O)CC[C@]4(C)[C@H]3CC[C@@]21C` [Megestrol_acetate] (top concentration 10000 nM), the “selective drug sensitivity score” value was 0.52 in the assay with REH, 7.52 in the assay on MHH-CALL-4 and -0.58 in the assay on KASUMI-2.

`CO[C@@H]1[C@H](N(C)C(=O)c2ccccc2)C[C@H]2O[C@]1(C)n1c3ccccc3c3c4c(c5c6ccccc6n2c5c31)C(=O)NC4` [Midostaurin] (top concentration 10000 nM): the “selective drug sensitivity score” value in the assay with REH was 3.66; in the assay with MHH-CALL-4, 3.66; in the assay with KASUMI-2, -1.14.

Consider `CCCCCCCCCCCCCCCCOP(=O)([O-])OCC[N+](C)(C)C` [Miltefosine] (top concentration 100000 nM), for which the figures for the “selective drug sensitivity score” value in the assay on REH, with MHH-CALL-4 and in the assay on KASUMI-2 were 2.76, -1.34 and 1.76, respectively.

Take `Nc1ccccc1NC(=O)c1ccc(CNc2nccc(-c3cccnc3)n2)cc1` [Mocetinostat] (top concentration 10000 nM): the results for the “selective drug sensitivity score” value in the assay with REH, in the assay with MHH-CALL-4 and in the assay on KASUMI-2 were 3.94, 8.04 and 6.74, respectively.

Regarding `CCNC(=O)C[C@@H]1N=C(c2ccc(Cl)cc2)c2cc(OC)ccc2-n2c(C)nnc21` [Molibresib] (top concentration 10000 nM), the “selective drug sensitivity score” value in the assay with REH is 0.8; in the assay on MHH-CALL-4 it was 6.9; in the assay with KASUMI-2 it was -2.7.

Turning to `Nc1ncnc2c1c(-c1cccc(OCc3ccccc3)c1)cn2[C@H]1C[C@@H](CN2CCC2)C1` [NVP-AEW541] (top concentration 10000 nM), the “selective drug sensitivity score” value is 0.88 with REH, 0.08 in the assay on MHH-CALL-4 and -3.62 in the assay with KASUMI-2.

On to `CN[C@@H](C)C(=O)N[C@H](C(=O)N1CCC[C@H]1c1nc(C(=O)c2ccc(F)cc2)cs1)C1CCCCC1` [NVP-LCL161] (top concentration 25000 nM), for which the results for the “selective drug sensitivity score” value in the assay on REH, in the assay on MHH-CALL-4 and in the assay on KASUMI-2 were 2.38, 1.58 and 2.88, respectively.

Take `CC(=O)c1cc2c(o1)C(=O)c1ccccc1C2=O` [Napabucasin] (top concentration 20000 nM): the “selective drug sensitivity score” value is -1.58 with REH, 0.12 in the assay with MHH-CALL-4 and -3.38 in the assay with KASUMI-2.

As to `CC1(C)CCC(c2ccc(Cl)cc2)=C(CN2CCN(c3ccc(C(=O)NS(=O)(=O)c4ccc(N[C@H](CCN5CCOCC5)CSc5ccccc5)c(S(=O)(=O)C(F)(F)F)c4)cc3)CC2)C1` [Navitoclax] (top concentration 10000 nM), the “selective drug sensitivity score” value with REH was found to be 4.92; in the assay on MHH-CALL-4, 18.4; in the assay on KASUMI-2, 24.8.

As to `CC(=O)c1c(C)c2cnc(Nc3ccc(N4CCNCC4)cn3)nc2n(C2CCCC2)c1=O` [Palbociclib] (top concentration 10000 nM), the “selective drug sensitivity score” value in the assay with REH was 3.08; with MHH-CALL-4, -1.82; with KASUMI-2, 0.88.

For the compound `COc1ccc(COc2cc3oc(=O)c4cc(C(C)O)ccc4c3cc2OC)cc1` (configuration not stated) [Palomid-529] (top concentration 10000 nM), the “selective drug sensitivity score” value is 6.66 with REH, -0.24 with MHH-CALL-4 and -0.24 in the assay on KASUMI-2.

With `FC(F)(F)c1ccc(CNc2ccc(Cc3c[nH]c4ncc(Cl)cc34)cn2)cn1` [Pexidartinib] (top concentration 10000 nM), the “selective drug sensitivity score” value in the assay on REH was 0.38; in the assay with MHH-CALL-4, -2.22; with KASUMI-2, -2.22.

For `CO[C@H](C(=O)[C@@H](O)[C@@H](C)O)[C@@H]1Cc2cc3cc(O[C@H]4C[C@@H](O[C@H]5C[C@@H](O)[C@H](O)[C@@H](C)O5)[C@@H](O)[C@@H](C)O4)c(C)c(O)c3c(O)c2C(=O)[C@H]1O[C@H]1C[C@@H](O[C@H]2C[C@@H](O[C@H]3C[C@](C)(O)[C@H](O)[C@@H](C)O3)[C@H](O)[C@@H](C)O2)[C@H](O)[C@@H](C)O1` [Plicamycin] (top concentration 10000 nM), the “selective drug sensitivity score” value with REH was -13.4; with MHH-CALL-4, -7.26; in the assay with KASUMI-2 it was -17.2.

On to `Cn1cc(CNCC2CCN(c3ncc(C(=O)NO)cn3)CC2)c2ccccc21` [Quisinostat] (top concentration 1000 nM), for which the “selective drug sensitivity score” value in the assay on REH was -1.12; with MHH-CALL-4, 5.98; with KASUMI-2 it was 12.4.

For the compound `CC(C)(C)Cn1c(N)nc2ccc(-c3[nH]c(C(C)(C)C)nc3-c3ccc(F)cc3)nc21` [Ralimetinib] (top concentration 10000 nM), the “selective drug sensitivity score” value in the assay on REH was 2.36; in the assay on MHH-CALL-4 it was -0.84; with KASUMI-2, 1.56.

Turning to `O=C(CCCCCCNC(=O)c1cnc(N(c2ccccc2)c2ccccc2)nc1)NO` [Rocilinostat] (top concentration 10000 nM), the “selective drug sensitivity score” value in the assay on REH came out at 6.04; in the assay with MHH-CALL-4, 3.74; in the assay on KASUMI-2, 10.2.

Consider `CN1CCC(CNc2ccc3ncc(-c4cccc(OC(F)(F)F)c4)n3n2)CC1` [SGI-1776] (top concentration 10000 nM), for which the “selective drug sensitivity score” value in the assay on REH was -2.78; with MHH-CALL-4, 0.32; with KASUMI-2, 0.62.

As to `O=C(/C=C\n1cnc(-c2cc(C(F)(F)F)cc(C(F)(F)F)c2)n1)NNc1cnccn1` [Selinexor] (top concentration 10000 nM), the “selective drug sensitivity score” value was 10.3 with REH, 5.18 in the assay with MHH-CALL-4 and 16.7 with KASUMI-2.

`Cn1cnc2c(F)c(Nc3ccc(Br)cc3Cl)c(C(=O)NOCCO)cc21` [Selumetinib] (top concentration 10000 nM): the entries for the “selective drug sensitivity score” value in the assay on REH, with MHH-CALL-4 and in the assay on KASUMI-2 were -4.1, 4.2 and 7.5, respectively.

Regarding `COCC[n+]1c2c(n(Cc3cnccn3)c1C)C(=O)c1ccccc1C2=O` [Sepantronium_bromide] (top concentration 10000 nM), the “selective drug sensitivity score” value was determined as 17.8 in the assay on REH, 19.4 with MHH-CALL-4 and 19.5 in the assay with KASUMI-2.

Regarding `O=C(O)c1ccc2c(c1)nc(Nc1cccc(Cl)c1)c1ccncc12` [Silmitasertib] (top concentration 10000 nM), the “selective drug sensitivity score” value in the assay with REH was 4.8; with MHH-CALL-4 it was 2.2; with KASUMI-2 it was -1.4.

Consider `CO[C@H]1C[C@@H]2CC[C@@H](C)[C@@](O)(O2)C(=O)C(=O)N2CCCC[C@H]2C(=O)O[C@H]([C@H](C)C[C@@H]2CC[C@@H](O)[C@H](OC)C2)CC(=O)[C@H](C)/C=C(\C)[C@@H](O)[C@@H](OC)C(=O)[C@H](C)C[C@H](C)/C=C/C=C/C=C/1C` [Sirolimus] (top concentration 100 nM), for which the “selective drug sensitivity score” value with REH was 0.54; with MHH-CALL-4, -0.76; in the assay with KASUMI-2, 2.84.

For `COCCNCc1ccc(-c2cc3nccc(Oc4ccc(NC(=O)C5(C(=O)Nc6ccc(F)cc6)CC5)cc4F)c3s2)nc1` [Sitravatinib] (top concentration 2500 nM), the “selective drug sensitivity score” value with REH was 2.88; in the assay on MHH-CALL-4, 5.48; in the assay with KASUMI-2, -0.42.
